pIC50: −log10 of the molar value.
Key:
[1] = target: T1, ALK5 kinase (Homo sapiens, UniProt P36897); test: LanthaScreen Eu Kinase Binding Assay; conditions: Kinase Tracer 178, Eu-anti-GST Antibody, read-out: IC50 Enzyme
T1 sequence (P36897 34-503): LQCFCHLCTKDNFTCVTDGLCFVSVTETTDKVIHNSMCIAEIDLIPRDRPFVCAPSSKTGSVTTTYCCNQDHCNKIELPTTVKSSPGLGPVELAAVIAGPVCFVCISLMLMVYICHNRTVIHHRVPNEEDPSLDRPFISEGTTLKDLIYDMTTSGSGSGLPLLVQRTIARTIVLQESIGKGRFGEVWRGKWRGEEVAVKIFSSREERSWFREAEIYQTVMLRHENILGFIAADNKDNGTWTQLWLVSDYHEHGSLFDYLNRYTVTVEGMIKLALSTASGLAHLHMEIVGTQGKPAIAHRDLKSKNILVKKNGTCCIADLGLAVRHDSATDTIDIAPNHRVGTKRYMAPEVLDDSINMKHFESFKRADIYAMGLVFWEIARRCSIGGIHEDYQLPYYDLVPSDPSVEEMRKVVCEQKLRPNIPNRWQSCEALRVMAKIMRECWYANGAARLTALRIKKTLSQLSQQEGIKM
Protocol: [Example 1] LanthaScreen Eu Kinase Binding Assay
4 μL of 4× Test Compound in 4% DMSO and 4 μL of 4× Kinase in Kinase buffer were added to wells (low volume, white 384-well plate (Greiner Cat. #784207)). The plate was shaken for 30 seconds, centrifuged for 10 seconds at 1000 rpm, and incubated at RT for 30 minutes. Then, 4 μL of 4× Eu-anti-GST Antibody and 4 μL of 4× Kinase Tracer 178 were added to the wells. The plate was shaken for 30 seconds, centrifuged for 10 seconds at 1000 rpm, and incubated at RT for 60 minutes. Fluorescence was measured by a plate reader, Biotek Synergy H1 (Vermont, USA) under the following conditions. • Excitation: 340 nm (3 nm bandpass) • Kinase tracer emission: 665 nm (10 nm bandpass) • Eu Ab emission: 615 nm (10 nm bandpass) • Emission ratio=665 nm (tracer)/615 nm (Eu Ab) • The higher the binding affinity of compound to ALK5 kinase is, the less the emission ratio is.

[2] = system: TGF-β signaling; test: Assay for evaluating cellular inhibition of TGF-β signaling, 4T1 (SBE-luc2P) luciferase reporter; format: cell-based; conditions: Mus musculus, 4T1, 4T1 (SBE-luc2P) transient pool, 0.2% FBS, 2 h pre-treatment, TGF-β1 2 ng/mL 24 h; read-out: IC50 4T1 Cell
Protocol: [Example 2] Assay for Evaluating Cellular Inhibition of TGF-β Signaling
4T1 (SBE-luc2P) transient pool that have SBE-luc2P (hygro) expression plasmid or HEK293 (SBE reporter) stable cells (BPS bioscience) were seeded at 6×10^3 cells/well or 2.5×10^4 cells/well in 96-well plate, respectively. 4T1 (SBE-luc2P) transient pool were pre-treated with novel compound synthesized in Example 1 above in 0.2% FBS at approximately 60% confluence at 37° C. in 5% CO2. Also, HEK293 (SBE reporter) stable cells were pre-treated with each test compounds of formula in 0.5% FBS at approximately 80% confluence at 37° C. in 5% CO2. After 2 hours, cells were treated with TGF-β1 (2 ng/mL) for 24 h at 37° C. in 5% CO2. Cell lysates were prepared using Luciferase Assay (Promega) according to the manufacturer's instruction, and luminescence was measured by a plate reader, Biotek Synergy H1 (Vermont, USA).

Row | Structure (SMILES) | pIC50 [1] | pIC50 [2]
1 | Nc1nc(-c2ccccc2)c(Oc2ccnc(Nc3cccc(S(N)(=O)=O)c3)c2)s1 [A-1, 3-((4-((2-Amino-4-phenylthiazol-5-yl)oxy)pyridin-2-yl)amino)benzenesulfonamide] | > 7.00 | > 7.00
2 | NC(=O)c1cccc(Nc2cc(Oc3sc(N)nc3-c3ccccc3)ccn2)c1 [A-2, 3-((4-((2-Amino-4-phenylthiazol-5-yl)oxy)pyridin-2-yl)amino)benzamide] | > 7.00 | > 7.00
3 | COC(=O)c1cccc(Nc2cc(Oc3sc(N)nc3-c3ccccc3)ccn2)c1 [A-3, Methyl 3-((4-((2-amino-4-phenylthiazol-5-yl)oxy)pyridin-2-yl)amino)benzoate] | > 7.00 | < 7.00
4 | Nc1nc(-c2ccccc2)c(Oc2ccnc(Nc3ccc(S(N)(=O)=O)cc3)c2)s1 [A-4, 4-((4-((2-Amino-4-phenylthiazol-5-yl)oxy)pyridin-2-yl)amino)benzenesulfonamide] | > 7.00 | < 7.00
5 | NC(=O)c1ccc(Nc2cc(Oc3sc(N)nc3-c3ccccc3)ccn2)cc1 [A-5, 4-((4-((2-Amino-4-phenylthiazol-5-yl)oxy)pyridin-2-yl)amino)benzamide] | > 7.00 | < 7.00
6 | NC(=O)c1ccc(Nc2cc(Oc3sc(N)nc3-c3ccccc3)ccn2)nc1 [A-9, 6-((4-((2-Amino-4-phenylthiazol-5-yl)oxy)pyridin-2-yl)amino)nicotinamide] | > 7.00 | > 7.00
7 | CN(C)C(=O)c1cccc(Nc2cc(Oc3sc(N)nc3-c3ccccc3)ccn2)c1 [A-10, 3-((4-((2-Amino-4-phenylthiazol-5-yl)oxy)pyridin-2-yl)amino)-N,N-dimethylbenzamide] | > 7.00 | < 7.00
8 | CS(=O)(=O)Nc1cccc(Nc2cc(Oc3sc(N)nc3-c3ccccc3)ccn2)c1 [A-14, N-(3-((4-((2-Amino-4-phenylthiazol-5-yl)oxy)pyridin-2-yl)amino)phenyl)methanesulfonamide] | > 7.00 | > 7.00
9 | Nc1nc(-c2ccccc2)c(Oc2ccnc(Nc3ccc(C(=O)O)cc3)c2)s1 [A-39, 4-((4-((2-Amino-4-phenylthiazol-5-yl)oxy)pyridin-2-yl)amino)benzoic acid] | > 7.00 | < 7.00
10 | Nc1nc(-c2ccccc2)c(Oc2ccnc(Nc3cccc(C(=O)O)c3)c2)s1 [A-40, 3-((4-((2-Amino-4-phenylthiazol-5-yl)oxy)pyridin-2-yl)amino)benzoic acid] | > 7.00 | < 7.00
11 | CC(C)(O)c1cccc(Nc2cc(Oc3sc(N)nc3-c3ccccc3)ccn2)c1 [A-41, 2-(3-((4-((2-Amino-4-phenylthiazol-5-yl)oxy)pyridin-2-yl)amino)phenyl)propan-2-ol] | > 7.00 | < 7.00
12 | CC(C)(O)c1cc(Nc2cc(Oc3sc(N)nc3-c3ccccc3)ccn2)ccn1 [A-42, 2-(4-((4-((2-Amino-4-phenylthiazol-5-yl)oxy)pyridin-2-yl)amino)pyridin-2-yl)propan-2-ol] | > 7.00 | < 7.00
13 | CC(C)(O)c1ccc(Nc2cc(Oc3sc(N)nc3-c3ccccc3)ccn2)cn1 [A-43, 2-(5-((4-((2-Amino-4-phenylthiazol-5-yl)oxy)pyridin-2-yl)amino)pyridin-2-yl)propan-2-ol] | > 7.00 | < 7.00
14 | CC(C)(O)c1cccc(Nc2cc(Oc3sc(NC4CC4)nc3-c3ccccc3)ccn2)c1 [A-44, 2-(3-((4-((2-(Cyclopropylamino)-4-phenylthiazol-5-yl)oxy)pyridin-2-yl)amino)phenyl)propan-2-ol] | > 7.00 | < 7.00
15 | NS(=O)(=O)c1cccc(Nc2cc(Oc3sc(NC4CC4)nc3-c3ccccc3)ccn2)c1 [A-45, 3-((4-((2-(Cyclopropylamino)-4-phenylthiazol-5-yl)oxy)pyridin-2-yl)amino)benzenesulfonamide] | > 7.00 | < 7.00
16 | NC(=O)c1cccc(Nc2cc(Oc3sc(NC4CC4)nc3-c3ccccc3)ccn2)c1 [A-46, 3-((4-((2-(Cyclopropylamino)-4-phenylthiazol-5-yl)oxy)pyridin-2-yl)amino)benzamide] | > 7.00 | –
17 | NC(=O)c1ccc(Nc2cc(Oc3sc(NC4CC4)nc3-c3ccccc3)ccn2)cc1 [A-47, 4-((4-((2-(Cyclopropylamino)-4-phenylthiazol-5-yl)oxy)pyridin-2-yl)amino)benzamide] | < 7.00 | < 7.00
18 | O=C(O)c1cccc(Nc2cc(Oc3sc(NC4CC4)nc3-c3ccccc3)ccn2)c1 [A-48, 3-((4-((2-(Cyclopropylamino)-4-phenylthiazol-5-yl)oxy)pyridin-2-yl)amino)benzoic acid] | > 7.00 | < 7.00
19 | O=C(O)c1ccc(Nc2cc(Oc3sc(NC4CC4)nc3-c3ccccc3)ccn2)cc1 [A-49, 4-((4-((2-(Cyclopropylamino)-4-phenylthiazol-5-yl)oxy)pyridin-2-yl)amino)benzoic acid] | > 7.00 | < 7.00
20 | CNc1nc(-c2ccccc2)c(Oc2ccnc(Nc3cccc(C(C)(C)O)c3)c2)s1 [A-50, 2-(3-((4-((2-(Methylamino)-4-phenylthiazol-5-yl)oxy)pyridin-2-yl)amino)phenyl)propan-2-ol] | > 7.00 | < 7.00
21 | CNc1nc(-c2ccccc2)c(Oc2ccnc(Nc3cccc(S(N)(=O)=O)c3)c2)s1 [A-51, 3-((4-((2-(Methylamino)-4-phenylthiazol-5-yl)oxy)pyridin-2-yl)amino)benzenesulfonamide] | > 7.00 | > 7.00
22 | CNc1nc(-c2ccccc2)c(Oc2ccnc(Nc3cccc(C(N)=O)c3)c2)s1 [A-52, 3-((4-((2-(Methylamino)-4-phenylthiazol-5-yl)oxy)pyridin-2-yl)amino)benzamide] | > 7.00 | < 7.00
23 | CNc1nc(-c2ccccc2)c(Oc2ccnc(Nc3ccc(S(N)(=O)=O)cc3)c2)s1 [A-53, 4-((4-((2-(Methylamino)-4-phenylthiazol-5-yl)oxy)pyridin-2-yl)amino)benzenesulfonamide] | > 7.00 | –
24 | CNc1nc(-c2ccccc2)c(Oc2ccnc(Nc3ccnc(C(C)(C)O)c3)c2)s1 [A-54, 2-(4-((4-((2-(Methylamino)-4-phenylthiazol-5-yl)oxy)pyridin-2-yl)amino)pyridin-2-yl)propan-2-ol] | > 7.00 | –
25 | CNc1nc(-c2ccccc2)c(Oc2ccnc(Nc3ccc(C(C)(C)O)nc3)c2)s1 [A-55, 2-(5-((4-((2-(Methylamino)-4-phenylthiazol-5-yl)oxy)pyridin-2-yl)amino)pyridin-2-yl)propan-2-ol] | > 7.00 | –
26 | CNc1nc(-c2ccccc2)c(Oc2ccnc(Nc3ccc(C(=O)O)cc3)c2)s1 [A-56, 4-((4-((2-(Methylamino)-4-phenylthiazol-5-yl)oxy)pyridin-2-yl)amino)benzoic acid] | > 7.00 | < 7.00
27 | CNc1nc(-c2ccccc2)c(Oc2ccnc(Nc3cccc(C(=O)O)c3)c2)s1 [A-57, 3-((4-((2-(Methylamino)-4-phenylthiazol-5-yl)oxy)pyridin-2-yl)amino)benzoic acid] | > 7.00 | < 7.00
28 | Cc1nc(-c2ccccc2)c(Oc2ccnc(Nc3cccc(S(N)(=O)=O)c3)c2)s1 [A-58, 3-((4-((2-Methyl-4-phenylthiazol-5-yl)oxy)pyridin-2-yl)amino)benzenesulfonamide] | > 7.00 | > 7.00
29 | NC(=O)c1ccc(Nc2cc(Oc3sc(C4CCCC4)nc3-c3ccccc3)ccn2)nc1 [A-173, 6-((4-((2-Cyclopentyl-4-phenylthiazol-5-yl)oxy)pyridin-2-yl)amino)nicotinamide] | < 7.00 | –
30 | Cc1cccc(-c2nc(N)sc2Oc2ccnc(Nc3cccc(S(N)(=O)=O)c3)c2)n1 [A-247, 3-((4-((2-Amino-4-(6-methylpyridin-2-yl)thiazol-5-yl)oxy)pyridin-2-yl)amino)benzenesulfonamide] | > 7.00 | –
